Laboratory results published in patent US12419865B2 (priority 2018, dated 2025).
Where two headings read alike, the source gives them in different places.

Key:
[1] = system: LASV-p; assay: microbe, parasite or virus in culture; type: cell-based, Lassa (LASV); details: Vesicular stomatitis virus, Vero, read-out: LASV-p EC50
[2] = mouse, in vivo, 30 mg/kg
[3] = system: VSV-p; assay: microbe, parasite or virus in culture; type: cell-based; details: Vesicular stomatitis virus, Vero, read-out: VSV-p EC50
[4] = system: TCRV-p; assay: organism not typed; type: cell-based; details: read-out: TCRV-p EC50
[5] = target: hERG channel (Homo sapiens, UniProt Q12809); details: pH 7.4
hERG channel, sequence (Q12809 whole entry): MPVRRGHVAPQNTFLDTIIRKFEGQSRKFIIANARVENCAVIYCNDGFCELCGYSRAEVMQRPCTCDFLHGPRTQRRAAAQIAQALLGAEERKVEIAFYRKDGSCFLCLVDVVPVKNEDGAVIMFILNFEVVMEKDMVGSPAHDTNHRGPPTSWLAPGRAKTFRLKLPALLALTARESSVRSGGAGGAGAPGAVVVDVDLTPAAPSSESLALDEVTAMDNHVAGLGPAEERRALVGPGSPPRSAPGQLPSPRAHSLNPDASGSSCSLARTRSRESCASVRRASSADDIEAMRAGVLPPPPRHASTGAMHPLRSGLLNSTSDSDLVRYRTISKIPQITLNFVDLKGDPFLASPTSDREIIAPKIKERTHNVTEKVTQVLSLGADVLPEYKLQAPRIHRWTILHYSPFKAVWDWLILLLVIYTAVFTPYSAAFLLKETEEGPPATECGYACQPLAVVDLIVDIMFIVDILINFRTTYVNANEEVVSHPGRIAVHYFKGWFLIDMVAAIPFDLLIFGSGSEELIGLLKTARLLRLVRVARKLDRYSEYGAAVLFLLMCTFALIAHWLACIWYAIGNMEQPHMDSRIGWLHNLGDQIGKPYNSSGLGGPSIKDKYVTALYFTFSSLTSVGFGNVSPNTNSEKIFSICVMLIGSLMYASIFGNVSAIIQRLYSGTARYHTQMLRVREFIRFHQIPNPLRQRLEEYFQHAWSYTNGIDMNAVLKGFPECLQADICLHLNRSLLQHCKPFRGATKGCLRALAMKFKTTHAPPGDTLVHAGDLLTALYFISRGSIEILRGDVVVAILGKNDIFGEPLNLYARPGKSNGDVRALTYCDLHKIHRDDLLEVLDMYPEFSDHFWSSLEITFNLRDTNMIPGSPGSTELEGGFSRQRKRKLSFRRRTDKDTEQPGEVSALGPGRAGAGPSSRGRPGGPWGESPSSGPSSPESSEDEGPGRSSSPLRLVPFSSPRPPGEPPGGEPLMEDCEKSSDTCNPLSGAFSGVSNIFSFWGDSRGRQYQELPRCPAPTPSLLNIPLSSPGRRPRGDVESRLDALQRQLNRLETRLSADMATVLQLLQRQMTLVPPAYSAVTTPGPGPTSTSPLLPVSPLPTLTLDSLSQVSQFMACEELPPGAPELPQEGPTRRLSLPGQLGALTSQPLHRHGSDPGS

[6] = system: replicative LASV; assay: microbe, parasite or virus in culture; type: cell-based, Lassa Virus; details: for EC90: Mammarenavirus lassaense
[7] = system: GTOV-p; assay: organism not typed; type: cell-based, Guanarito (GTOV); details: Vero, read-out: GTOV-p EC50
[8] = system: replicative LASV; assay: microbe, parasite or virus in culture; type: cell-based, Lassa Virus; details: Mammarenavirus lassaense
[9] = mouse, in vivo, po
[10] = system: JUNV-p; assay: organism not typed; type: cell-based, Junin (JUNV); details: Vero, read-out: JUNV-p EC50
[11] = system: MACV-p; assay: organism not typed; type: cell-based, Machupo (MACV); details: Vero, read-out: MACV-p EC50
[12] = system: native replicating Tacaribe (TCRV) virus; assay: microbe, parasite or virus in culture; type: cell-based; details: Mammarenavirus tacaribeense, Vero, 120 h, read-out: TCRV EC50
[13] = in vivo; details: mouse
[14] = in vitro; details: African green monkey
[15] = guinea pig, 1 h, pH 7.4
[16] = 1 h, pH 7.4
[17] = 1 h, pH 7.4; remark: listed apart in the source
[18] = 1 h, pH 7.4; remark: listed apart in the source
[19] = 1 h, pH 7.4; remark: listed apart in the source
[20] = 1 h, pH 7.4; remark: listed apart in the source
[21] = read-out: EC90 in the VYR assay format
[22] = read-out: EC50 in the plaque assay format

SMILES | EC50 [1] [nM] | EC50 [3] [nM] | EC50 ([4]; Vero) [nM] | EC50 [4] [nM] | % Inhibition at 3 uM [5] [%] | Sl90 [6] | EC90 ([6]; Vero, read-out: VYR Assay EC90) [nM] | EC90 [6, 21] [nM] | EC50 [7] [nM] | EC50 [8, 22] [nM] | EC50 ([8]; read-out: Plaque Assay EC50) [nM] | EC50 [10] [nM] | EC50 [11] [nM] | EC50 [12] [nM] | CC50 [14] [nM] | Percent parent compound remaining at 60 minutes in liver microsomes, Guinea [15] [%] | Percent parent compound remaining at 60 minutes in liver microsomes, Human [16] [%] | Percent parent compound remaining at 60 minutes in liver microsomes, Mouse [17] [%] | Percent parent compound remaining at 60 minutes in liver microsomes, Monkey [18] [%] | Percent parent compound remaining at 60 minutes in liver microsomes, Rat [19] [%] | also measured
Cc1cc2ncc(-c3ccc(OC(C)(C)C)cc3)n2cc1-c1ccc(OC(C)C)cc1 [Example B7, 3-(4-(tert-butoxy)phenyl)-6-(4-isopropoxyphenyl)-7-methylimidazo[1,2-a]pyridine] | 0.9 | > 10000 | 0.16 | 0.2 | <10 | >11,000 | < 1 | 1 to 3 | 0.12 | 1 to 3 | < 3 | 0.31 | 0.42 | 0.74 | 8140 |  |  |  |  |  | Oral C-Max [2]: 5.5 µg/mL; Oral T-Max [2]: 2 h; 24 hr liver concentration [9]: 63.4 ug/g liver; 24 hr plasma concentration [9]: 9.1 µg/mL; Vd [13]: 35.7 L/kg; clearance [13]: 13.7 mL/min/kg; AUC(0-t) ([13]; po, 30 mg/kg): 70.4 µg·h/mL; bioavailability ([13]; po, 30 mg/kg): 30%
CC(C)Oc1ccc(-c2cc3c(cc2Cl)nnn3-c2ccc(OC(C)C)cc2)cc1 [Example C11, 5-chloro-1,6-bis(4-isopropoxyphenyl)-1H-benzo[d][1,2,3]triazole] | 2.29 | > 10000 | 0.77 | 0.61 | <10 |  |  |  |  |  |  | 0.1 | 0.19 | 0.84 | > 100000 | >95 | >95 | >95 |  |  | 
Cc1cc2ncc(-c3ccc(C(C)(C)O)cc3)n2cc1-c1ccc(OC(C)C)cc1 [Example B8, 2-(4-(6-(4-isopropoxyphenyl)-7-methylimidazo[1,2-a]pyridin-3-yl)phenyl)propan-2-ol] | 2.91 | > 10000 | 0.32 | 0.32 | <10 | >9,000 | < 3 | 1 to 3 | 0.94 | 1 to 3 | < 3 | 0.76 | 0.61 | 2.16 | 27800 | 67.7 | 87.6 | 77.5 | 33.7 | 93 | Percent parent compound remaining at 60 minutes in liver microsomes, Dog [20]: 77.57%
Cc1cc2ncn(-c3ccc(OC(C)(C)C)cc3)c2cc1-c1ccc(C(C)(C)O)cc1 [Example A1, 2-(4-(1-(4-(tert-butoxy)phenyl)-5-methyl-1H-benzo[d]imidazol-6-yl)phenyl)propan-2-ol] | 0.83 | > 10000 | 0.29 | 0.24 | <10 | >33,000 | < 1 | 1 to 3 |  | 1 to 3 | < 3 | 0.87 | 0.12 | 0.89 | 37700 | >95 | 68.3 | 82.7 | 8.6 | 93.8 | Oral C-Max [2]: 20.4 µg/mL; Oral T-Max [2]: 0.5 h; Percent parent compound remaining at 60 minutes in liver microsomes, Dog [20]: >95%; 24 hr liver concentration [9]: 240.3 ug/g liver; 24 hr plasma concentration [9]: 8.8 µg/mL; Vd [13]: 17.6 L/kg; clearance [13]: 0.8 mL/min/kg; AUC(0-t) ([13]; po, 30 mg/kg): 183 µg·h/mL; bioavailability ([13]; po, 30 mg/kg): 35%; half-life ([13]; po, 30 mg/kg): 17 h
Cc1cc2ncc(-c3ccc(OC(C)(C)C)cc3)n2cc1-c1ccc(C(C)(C)O)cc1 [Example B6, 2-(4-(3-(4-(tert-butoxy)phenyl)-7-methylimidazo[1,2-a]pyridin-6-yl)phenyl)propan-2-ol] | 0.7 | > 10000 | 0.16 | 0.1 |  |  |  |  | 0.11 |  |  | 0.22 | 0.13 | 0.95 | 4320 | 61.5 | 81.5 | 81.7 |  |  | 
Cc1cc2ncn(-c3ccc(OC(C)(C)C)cc3)c2cc1-c1ccc(OC(C)C)cc1 [Example A2, 1-(4-(tert-butoxy)phenyl)-6-(4-isopropoxyphenyl)-5-methyl-1H-benzo[d]imidazole] | 0.38 | > 10000 | 0.15 | 0.12 |  | >13,000 | < 1 | 1 to 3 | 0.05 | 1 to 3 | < 3 | 0.15 | 0.14 | 0.33 | 7300 | >95 | 95 | 93.9 | 53 | >95 | Percent parent compound remaining at 60 minutes in liver microsomes, Dog [20]: >95%
